Measured values as given in PubChem BioAssay (NCI).
Several values for one entry are separate records, joined by “and”; a condition that tells them apart may be missing. Identical values can stand only once.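 96-well plates; 48 h exposure; 5 concentrations. Endpoints by linear interpolation between flanking doses. Not reached: highest tested concentration assigned. Here, GI50 denotes the concentration required for 50% inhibition of growth. TGI denotes the concentration required for complete inhibition of growth.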

Experiments:
Experiment in all cases: NCI anticancer screen, dose series, 48 h
CAKI-1 renal = tested on: CAKI-1 renal
CCRF-CEM leukemia = tested on: CCRF-CEM leukemia
IGROV1 ovarian = tested on: IGROV1 ovarian
OVCAR-3 ovarian = tested on: OVCAR-3 ovarian
OVCAR-4 ovarian = tested on: OVCAR-4 ovarian
SF-295 CNS = tested on: SF-295 CNS
SF-539 CNS = tested on: SF-539 CNS
SNB-19 CNS = tested on: SNB-19 CNS
UO-31 renal = tested on: UO-31 renal
MDA-MB-435 = tested on: MDA-MB-435

SMILES	TGI (CAKI-1 renal) [µM]	TGI (CCRF-CEM leukemia)	TGI (IGROV1 ovarian)	TGI (OVCAR-3 ovarian)	TGI (OVCAR-4 ovarian) [µM]	TGI (SF-295 CNS) [µM]	TGI (SF-539 CNS)	TGI (SNB-19 CNS)	TGI (UO-31 renal)	GI50 (CAKI-1 renal)	GI50 (CCRF-CEM leukemia) [µM]	GI50 (IGROV1 ovarian)	GI50 (MDA-MB-435) [µM]	TGI (MDA-MB-435)	GI50 (OVCAR-3 ovarian) [µM]	GI50 (SF-295 CNS) [µM]	GI50 (SF-539 CNS)	GI50 (SNB-19 CNS)	GI50 (UO-31 renal)	GI50 (OVCAR-4 ovarian) [µM]
Cc1cc(Cl)ccc1NC(=O)CC1SC(=Nc2ccccc2Cl)NC1=O (stereo not drawn)	> 100	> 100 µM	> 100 µM	> 100 µM	> 100	> 100	55.3 µM	> 100 µM	> 100 µM	–	–	–	–	–	–	–	–	–	–	–
O=C(O)CCc1nn2c(nc1=O)sc1ccc3ccccc3c12	> 100	> 100 µM	> 100 µM	> 100 µM	> 100	> 100	> 100 µM	> 100 µM	> 100 µM	–	–	–	–	–	–	–	–	–	–	–
Cn1cc2ccccc2c1-c1nc(F)nc(OCC(=O)[C@H]2CCC3[C@@H]4CCC5=CC(=O)CC[C@]5(C)C4[C@@H](O)C[C@@]32C)n1 (stereo partly drawn)	14	27.5 µM	22.9 µM	33.2 µM	29.6	44.4	35.1 µM	36 µM	37.8 µM	–	–	–	–	–	–	–	–	–	–	–
O=Cc1c(O)c(C(=O)Nc2ccc3[nH]c(=O)[nH]c3c2)cc2ccccc12	> 100	> 100 µM	> 100 µM	> 100 µM	> 100	> 100	> 100 µM	> 100 µM	> 100 µM	–	–	–	–	–	–	–	–	–	–	–
Cc1cccc(C)c1NC(=O)C(=O)Nn1c(NN)nc2ccccc2c1=O	> 100	> 100 µM	> 100 µM	> 100 µM	> 100	> 100	> 100 µM	> 100 µM	> 100 µM	–	–	–	–	–	–	–	–	–	–	–
NC(N)=NS(=O)(=O)c1ccc(Nc2c3ccccc3nc3c(C(=O)Nc4ccc(S(N)(=O)=O)cc4)cccc23)cc1	> 100	> 100 µM	> 100 µM	> 100 µM	> 100	> 100	> 100 µM	> 100 µM	> 100 µM	–	–	–	–	–	–	–	–	–	–	–
COc1cc(C2CC(c3ccc(Nc4ccnc5cc(Cl)ccc45)cc3)=NN2c2ccc(Cl)cc2)cc(OC)c1OC (stereo not drawn)	> 100	> 100 µM	> 100 µM	> 100 µM	–	8.32	7.36 µM	> 100 µM	> 100 µM	2.12 µM	2.5	4.81 µM	0.329	2.05 µM	1.87	2.02	1.74 µM	4.91 µM	1.58 µM	–
N#CC1CC2(CCN1C(=O)c1ccccc1)OCCO2 (stereo not drawn)	> 100	> 100 µM	> 100 µM	> 100 µM	> 100	> 100	> 100 µM	> 100 µM	> 100 µM	–	–	–	–	–	–	–	–	–	–	–
CN(C)CCNC(=O)c1ccc(NC(=O)c2nc([N+](=O)[O-])cn2C)cc1	> 100	> 100 µM	> 100 µM	> 100 µM	> 100	> 100	> 100 µM	–	> 100 µM	–	–	–	–	> 100 µM	–	–	–	–	–	–
CC(C)OP(=O)(NC(=S)c1ccccc1)OC(C)C	> 100	> 100 µM	> 100 µM	> 100 µM	> 100	> 100	> 100 µM	> 100 µM	> 100 µM	–	–	–	–	–	–	–	–	–	–	–
COc1cc2c(cc1OC)/C(=C\c1ccccc1N)C(=O)OC2	27.1	7.06 µM	36.7 µM	35.7 µM	29	29.3	31 µM	32.5 µM	32.7 µM	–	–	–	–	–	–	–	–	–	–	–
Cn1cc(C(=O)C[n+]2ccccc2)c2ccccc21	> 100	> 100 µM	> 100 µM	> 100 µM	> 100	> 100	> 100 µM	> 100 µM	> 100 µM	–	–	–	–	–	–	–	–	–	–	–
O=C1C(=Cc2c(O)cc(O)cc2O)C(=O)c2ccccc21	> 65.5	> 73.1 µM	> 59.8 µM	> 55 µM	> 72.7	> 57	> 58.5 µM	> 56.9 µM	> 100 µM	–	–	–	–	–	–	–	–	–	–	–
S=P(N1CC1)(N1CC1)N1CC1	–	> 85.8 µM and 622 µM	77.2 µM and 361 µM and 507 µM	48.8 µM and 381 µM and 470 µM	–	–	49 µM and 223 µM and 182 µM	> 78.4 µM and 719 µM and 787 µM	39.3 µM and 288 µM and 69 µM	6.08 µM and 20 µM	2.11	38.8 µM and 280 µM	276	403 µM and 509 µM	–	6.78	11.4 µM and 23.3 µM	18.5 µM and 180 µM	18.2 µM and 28.3 µM	–
O=c1cccccc1[O-].O=c1cccccc1[O-].O=c1cccccc1[O-].[La+3]	> 100	51.3 µM	75.8 µM	55.8 µM	> 100	39.6	38 µM	84.1 µM	65.8 µM	–	–	–	–	–	–	–	5.62 µM	–	–	–
O=C1c2ccccc2-c2c1c1ccccc1c(=O)n2CCCn1ccnc1	2.05	> 100 µM	> 100 µM	–	> 100	2.99	8.06 µM	> 100 µM	> 100 µM	0.443 µM	1.51	2.86 µM	2.74	10.7 µM	–	0.896	2.33 µM	2.11 µM	0.359 µM	2.29
CC1OC(n2cc(F)c(=O)[nH]c2=O)C=CC1=O (stereo not drawn)	31.1	53 µM	> 100 µM	29.6 µM	33.6	31	31 µM	34.8 µM	30.3 µM	–	–	–	–	–	–	–	–	–	–	–
COc1cccc(/C=N/C(/N=C/c2cccc(OC)c2O)c2cccc(OC)c2O)c1O	48.1	> 100 µM	62.8 µM	62.4 µM	–	80	48.9 µM	> 100 µM	58.6 µM	–	–	–	–	> 100 µM	–	–	–	–	–	–
O=C(/C=C/c1ccc(C(F)(F)F)cc1)c1ccc(Nc2nc(NCCO)nc(Nc3ccc(Cl)cc3)n2)cc1	18.8	8.24 µM	16.2 µM	8.12 µM	15.5	14.7	6.62 µM	–	4.39 µM	5.12 µM	2.75	4.92 µM	3.46	12.8 µM	2.75	3.98	2.39 µM	–	1.75 µM	4.14
CC(C)(c1ccccc1)c1ccc(OC#N)cc1	> 100	> 76.3 µM	> 100 µM	> 100 µM	> 100	> 100	> 100 µM	> 100 µM	98 µM	–	–	–	–	–	–	–	–	–	–	–
COC(=O)/C=C/c1cc2c(cc1-c1c(C(=O)O)cc(OC)c(OC)c1OC)OCO2	> 10	> 10 µM	> 10 µM	> 10 µM	> 10	> 10	> 10 µM	> 10 µM	–	–	–	–	–	> 10 µM	–	–	–	–	–	–
